Laboratory results reported in patent US20080293699A1, “Inhibitors of thapsigargin-induced cell death” (priority 2007, published 2008).
Entries after “also recorded” stand apart in the source; their conditions may differ.

Tested on: ASK1 (ser 967, ser 83, thr 845)
Assay: Phosphorylation of ASK1 sites in ASK1-transfected 293T cells (immunoblotting)
Format: cell-based
Conditions: for Phosphorylation of ASK1 at ser 83 and thr 845 / Phosphorylation of ASK1 at ser 967: ASK1-transfected 293T; for Phosphorylation of ASK1 at ser 83 and thr 845: up to 100 μM; for Phosphorylation of ASK1 at ser 967: 100 μM compound, two hours
Protocol: Phosphorylation of ASK1 at various sites was inspected. 293T cells were transfected with pcDNA-ASK1-HA. One day later, cells were incubated with DMSO (0.4%) or 100 μM compound 6239507 (#1) for two hours. Cell extracts were prepared using lysis buffer and were subjected to immunoblotting using anti-phospho ASK1 antibodies or anti HA antibody as indicated (A). The relative density of each phosphorylated ASK band was calculated by imageJ software (B). In (C), compounds from (A) were compared in activity against thapsigargin-induced cell death. […] (D) 293T cells were transfected with pcDNA-ASK1-HA and pEBG-GST-14-3-3. One day later cells were incubated with DMSO (0.4%) or 100 μM of the indicated compound for two hours. Then cells were treated with thapsigargin (20 μM) for the indicated time. Cell extracts were prepared using lysis buffer, and 14-3-3 proteins were immunoprecipitated with […] sepharose beads. ASK1 protein binding with 14-3-3 was visualized by immunoblotting using anti-HA antibody. Anti-phospho ASK1 (ser967) antibody was used to detect phosphorylation of ASK1 at each time point.
Thus, while not directly inhibiting ASK1 kinase activity, these events are predicted to reduce ASK1 in vivo kinase activity. It is possible that compound 5962123 inhibits a protein phosphatase that regulates phosphorylation of Ser967.
Suppression of thapsigargin-induced phosphorylation of p38MAPK was also measured by a quantitative ELISA-methods, with IC50 for p38MAPK phosphorylation estimated at <5 μM. In contrast, thapsigargin-induced expression of CHOP, expression of ATF4, proteolytic processing of ATF6, phosphorylation of eIF2a (Ser 51), auto-phosphorylation of Ire1a or auto-phosphorylation of ASK1 were not inhibited directly by CID-2878746 at concentrations up to 50 μM tested by in vitro kinase assay using p32-γ-ATP substrate. […] Thapsigargin-induced reductions in phosphorylation of ASK1 at the serine 967 site in ASK1 transfected 293T cells are inhibited by compound 5962123 at concentrations of 50-100 μM, as determined by immunoblotting using anti-phospho-specific (ser 967) antibody, but thapsigargin-induced changes in phosphorylation of ASK1 at ser 83 and thr 845 are not modulated by compound 5962123 at concentrations as high as 100 μM in ASK1-transfected HEK293T cells.
Experiments were also performed to determine whether compound 6239507 enhances phosphorylation of ASK1 at Ser 967 before and after ER stress induction (i.e., thapsigargin treatment). 293T cells were transfected with pcDNA-ASK1-HA. One day later, cells were incubated with DMSO (0.4%) or 100 μM compound 6239507 (#1) for two hours. Then cells were treated with thapsigargin (20 μM) for the indicated times. Cell extracts were prepared by lysis buffer and were subjected to immunoblotting with anti-phospho ASK1 Ser967 antibody or anti HA antibody. The relative density of phosphor ser967 bands were calculated by imageJ software (mean ±SD).
The ser 967 site of ASK1 is known to down-regulate ASK1 activity by phosphorylation (Goldman et al., J. Biol. Chem. 279:10442-10449, 2004) via 14-3-3 binding. […] 293T cells were transfected with pcDNA-ASK1-HA. One day later, cells were incubated with DMSO (0.4%) or 100 μM compound 6239507 (#1) for two hours. Cell extracts were prepared using lysis buffer and were subjected to immunoblotting using anti-phospho ASK1 antibodies or anti HA antibody as indicated. The relative density of each phosphorylated ASK band was calculated by imageJ software. The compounds were compared in activity against thapsigargin-induced cell death. 293T cells were transfected with pcDNA-ASK1-HA and pEBG-GST-14-3-3. One day later cells were incubated with DMSO (0.4%) or 100 μM of the indicated compound for two hours. Then cells were treated with thapsigargin (20 μM) for the indicated time. Cell extracts were prepared using lysis buffer, and 14-3-3 proteins were immunoprecipitated with […] sepharose beads. […]

Row | Compound | Phosphorylation of ASK1 at ser 83 and thr 845 | Thapsigargin-stimulated dephosphorylation of ASK1 at serine 967 (ASK1-transfected HEK293T, 50 μM, 50-100 μM) | Phosphorylation of ASK1 at ser 967 | Phosphorylation of ASK1 at ser 967 (listed as 1)
1 | CCN(CC)c1ccc(C2Nc3ccccc3NC3=C2C(=O)CC(c2ccccc2)C3)cc1 (stereo not shown) [Compound 5962123, 6-(4-diethylaminophenyl)-9-phenyl-5,6,8,9,10,11-hexahydrobenzo[c][1,5]benzodiazepin-7-one] | not modulated | inhibited |  | 
2 | COc1ccc(C2CC(=O)C3=C(C2)Nc2ccccc2NC3c2ccccc2C(F)(F)F)cc1OC (stereo not shown) [Compound 6237735] | not ser 83 or thr 845 |  | enhanced phosphorylation of ser 967 only | 
3 | COc1ccc(C2CC(=O)C3=C(C2)Nc2ccccc2NC3c2cccc(Oc3ccccc3)c2)cc1OC (stereo not shown) [Compound 6239507] | not ser 83 or thr 845 |  | enhance phosphorylation; also recorded: intensified | enhanced phosphorylation of ser 967 only
